{"source": "paper PMC9898036", "about": "“VIP152 is a selective CDK9 inhibitor with pre-clinical in vitro and in vivo efficacy in chronic lymphocytic leukemia” (Leukemia, 2022)", "origin": "cited, not measured here", "tested_on": "CLL patients", "settings": "cited from earlier work", "data": [{"smiles": "CCc1cnn2c(NCc3ccc[n+]([O-])c3)cc(N3CCCC[C@H]3CCO)nc12", "note": "[dinaciclib]", "values": [{"measurement": "patients having a partial response", "result": 64, "unit": "%"}]}]}
